Results reported in patent publication US20240317722A1, “HETEROARYL-3-PIPERIDINEDIONE COMPOUND AND USE THEREOF” (Medshine Discovery Inc., priority 2021, published 2024).
Read-outs that look alike come from different tables or passages of the source.

Tests used:
NCI-H1581 = assay: Anti-proliferative effect in NCI-H1581 (CellTiter-Glo); assay type: cell-based; details: NCI-H1581, 3 days; for IC50: Homo sapiens, 72 h
Method: (§1) This assay studied the inhibitory effect of the compounds on cell proliferation by detecting the effect of the test compounds on the in vitro activity of tumor cells NCI-H1581, DMS114, NCI-H69 and NCI-H526.
(§2) The tumor cell lines were cultured in an incubator at 37° C., 5% CO2 or 0% CO2 according to the above culture conditions. The cells were periodically passaged, and cells in logarithmic growth phase were taken for plating. • 2. Cell plating • (1). Cells were stained with trypan blue and viable cells were counted.
(§3) • (3). 100 μL of cell suspension was added to each well of the culture plate, and culture medium without cells was added to the blank control well. • (4). The plate was incubated overnight in an incubator at 37° C., 5% CO2 or 0% CO2, and 100% relative humidity. • 3. Preparation of compound stock solution
(§4) Preparation of 1000× compound stock solution: Compound was dissolved in DMSO to 10 mM, then a portion was taken out and diluted to 1000 times the highest acting concentration. The diluted stock solution was dispensed for later use. • 4. Preparation of 5× compound working solution and treatment of cells with compounds. The working solutions were prepared freshly at each time for use. • (1). Preparation of 5× compound working solution: 119.4 μL of cell culture medium was added to a 96-well plate with a V-shaped bottom. 96 μL of DMSO-cell culture medium mix solution (with DMSO content of 0.5%) was added to subsequent gradient wells. 0.6 μL of the compound from the 1000× compound stock solution was added to the cell culture medium in the 96-well plate, and mixed to uniform with a pipette. A pipette was used to draw 24 μL of the compound-cell culture medium mixture into subsequent wells, and the mixture was mixed well by a pipette each time. • (2). Dosing: 25 μL of 5× compound working solution was added to the cell culture plate. 25 μL of DMSO-cell culture medium mix solution (with DMSO content of 0.5%) was added to the vehicle control and blank control. • (3). The 96-well cell plate was placed back into the incubator and cultured for 3 days. • 5. CellTiter-Glo luminescence cell viability detection
(§5) The following steps were performed according to the instruction of Promega CellTiter-Glo luminescence cell viability detection kit (Promega-G7573). • (1). The CellTiter-Glo buffer was thawed and allowed to stand to reach room temperature; • (2). CellTiter-Glo substrate was allowed to stand to reach room temperature; • (3). 10 mL of CellTiter-Glo buffer was added to CellTiter-Glo substrate in a bottle to dissolve the substrate to formulate CellTiter-Glo working solution; • (4). […] The culture plates were left at room temperature for 10 minutes to stabilize the luminescence signal; • (9). The luminous signal was detected on the 2104 En Vision plate reader. • 6. […]

DMS114 = assay: Anti-proliferative effect in DMS114 (CellTiter-Glo); assay type: cell-based; details: DMS114, 3 days; for IC50: Homo sapiens, DMS-114, 72 h
Method: as §1, §2, §3, §4, §5

NCI-H69 = assay: Anti-proliferative effect in NCI-H69 (CellTiter-Glo); assay type: cell-based; details: NCI-H69, 3 days; for IC50: Homo sapiens, 72 h
Method: as §1, §2, §3, §4, §5

NCI-H526 = assay: Anti-proliferative effect in NCI-H526 (CellTiter-Glo); assay type: cell-based; details: NCI-H526, 3 days; for IC50: Homo sapiens, 72 h
Method: as §1, §2, §3, §4, §5

[1] = Pharmacokinetics of compounds in mice; assay type: in vivo, C57BL/6N mice; details: for bioavailability / clearance / Vd / half-life: male, C57BL/6N, mouse, plasma; for bioavailability: read-out: Bioavailability F; for Vd: read-out: Apparent volume of distribution; for half-life: read-out: Elimination half-life (converted)
From the text: In this study, C57BL/6N male mice were selected as the test animals, and the LC/MS/MS method was used to quantitatively determine the drug concentration in the plasma of mice intravenously or orally administered the test compounds, so as to evaluate the pharmacokinetic profile of the test compounds in mice.
C57BL/6N mice (male, 20-30 g, 7-10 weeks old, Beijing Vital River).
A clear solution or suspension of the test compound was intravenously injected into C57BL/6N mice (fasted overnight) via tail or given to C57BL/6N mice (fasted overnight) by gavage. For intravenous injection administration, blood was collected from the cheek at 0 h (before administration) and 0.083, 0.25, 0.5, 1, 2, 4, 6, 8, and 24 h after administration. Each sample was collected about 0.05 mL. Heparin sodium was added to anti-coagulate. Plasma samples were collected and placed on wet ice, and centrifuged within 1 hour to separate the plasma (centrifugation conditions: 6000 g, 3 minutes, 2-8° C.). Blood samples were stored in a −80° C. refrigerator before analysis; For oral gavage administration, blood was collected from the cheek at 0 h (before administration) and 0.083, 0.25, 0.5, 1, 2, 4, 6, 8, 24 h after administration. Each sample was collected about 0.05 mL. Heparin sodium was added to anti-coagulate. Plasma samples were collected and placed on wet ice, and centrifuged within 1 hour to separate the plasma (centrifugation conditions: 6000 g, 3 minutes, 2-8° C.). Blood samples were stored in a −80° C. refrigerator before analysis. Through blood drug concentration data at different time points, Phoenix WinNonlin8.2.0 was used to calculate pharmacokinetic parameters, providing parameters such as AUC0-t, AUC0-∞, MRT0-∞, Cmax, Tmax, and T1/2, etc. and their mean and standard deviation.

[2] = administration by gavage, 10 mg/kg

SMILES: COCCOc1cc(NC(=O)NCc2ccc3c(C4CCC(=O)NC4=O)coc3c2)cc(Cl)c1C (centres unmarked) [WX005]
- IC50 (NCI-H1581): 5.2 nM
- Max. IR (NCI-H1581): 92.19%
- Max. IR (DMS114): 89.45%
- IC50 (DMS114): 6.1 nM
- IC50 (NCI-H69): 6.2 nM
- Max. IR (NCI-H69): 68.41%
- IC50 (NCI-H526): 0.5 nM
- Max. IR (NCI-H526): 99.17%
- Area under the plasma concentration-time curve (0-inf) [1, 2]: 108.89 µM·h
- Peak concentration [1, 2]: 23.27 µM
- Time to peak [1, 2]: 1.00 h
- Area under the plasma concentration-time curve (0-inf) ([1]; intravenous injection, 1 mg/kg): 14.34 µM·h
- bioavailability ([1]; PO 10 mg/kg vs IV 1 mg/kg): 75.9%
- clearance ([1]; intravenous injection, 1 mg/kg): 2.3 mL/min/kg
- Vd ([1]; intravenous injection, 1 mg/kg): 0.35 L/kg
- half-life ([1]; intravenous injection, 1 mg/kg): 163 min

SMILES: COCCOc1cc(NC(=O)NCc2ccc3c(C4CCC(=O)NC4=O)noc3c2)cc(Cl)c1C (centres unmarked) [WX013]
- IC50 (NCI-H1581): 1.3 nM
- Max. IR (NCI-H1581): 88.62%
- Max. IR (DMS114): 87.56%
- IC50 (DMS114): 2.1 nM
- IC50 (NCI-H69): 1.3 nM
- Max. IR (NCI-H69): 70.53%
- IC50 (NCI-H526): 0.1 nM
- Max. IR (NCI-H526): 99.37%
- Area under the plasma concentration-time curve (0-inf) [1, 2]: 40.90 µM·h
- Peak concentration [1, 2]: 3.06 µM
- Time to peak [1, 2]: 2.67 h
- Area under the plasma concentration-time curve (0-inf) ([1]; intravenous injection, 2 mg/kg): 37.03 µM·h
- bioavailability ([1]; PO 10 mg/kg vs IV 2 mg/kg): 22.1%
- clearance ([1]; intravenous injection, 2 mg/kg): 1.84 mL/min/kg
- Vd ([1]; intravenous injection, 2 mg/kg): 0.44 L/kg
- half-life ([1]; intravenous injection, 2 mg/kg): 307 min
